Reference: patent publication US20240325747A1, “COMPOSITIONS AND METHODS OF A CONCOMITANT THERAPY OF ALTERNATING ELECTRIC FIELDS AND N-CADHERIN INHIBITOR” (NOVOCURE GMBH, priority 2023, published 2024)

Key:
H1299 cells [1] = assay: Calcium switch assay, cell morphology (phase-contrast); assay type: cell-based; details: H1299, control and TTFields (72 h) conditions, 4 mM EGTA
Experimental: (§1) FIGS. 10A-10E show N-cadherin engagement functions upstream of AKT activation during long-term TTFields application. (FIG. 10A) H1299 cells were either left untreated or treated with TTFields (150 kHz) for 72 h. Left panel: Confocal fluorescence microscopy images of N-cadherin in control and TTFields-treated cells are shown. Blue, DAPI-stained DNA; Red, F-actin; Green, N-cadherin; Scale bars, 20 μm. Right panel: Quantification of N-cadherin expression, shown as mean±SEM. *p<0.05; unpaired t-test: N≥2. (FIGS. 10B, 10C) A2780 and H1299 cells were treated with TTFields (200 kHz and 150 kHz, respectively) for 72 h and then: left untreated (No EGTA), treated with 4 mM EGTA (EGTA), or treated with 4 mM EGTA subsequently replaced with serum-free calcium-containing medium (EGTA/Ca^+2). (FIG. 10B) Representative phase-contrast images. Scale bars, 100 μm. (FIG. 10C) Upper panels: Samples were immunoblotted for AKT, pAKT (Ser473), and GAPDH. Lower panels: Densitometric analysis (arbitrary units normalized to the expression of the housekeeping protein GAPDH), is shown as mean±SEM. *p<0.05, and *** p<0.001; one-way ANOVA followed by Tukey's post hoc test: N≥2. […]

A2780 cells [2] = assay: as above; assay type: cell-based; details: A2780, control and TTFields (72 h) conditions, 4 mM EGTA
Experimental: as §1

H1299 cells [3] = assay: Calcium switch assay, immunoblot of AKT phosphorylation (Ser473) after TTFields; assay type: cell-based; details: H1299, TTFields 150 kHz 72 h then 4 mM EGTA; compared with TTFields-treated cells under normal calcium levels
Experimental: as §1, with “GAPDH.” for “GAPDH. Lower panels: Densitometric analysis (arbitrary units normalized to the expression of the housekeeping protein GAPDH), is shown as mean±SEM. *p<0.05, and *** p<0.001; one-way ANOVA followed by Tukey's post hoc test: N≥2.”
(§2) NSCLC cells (FIGS. 4—H1299 cells) or ovarian cancer cells (FIGS. 5—A2780 cells) treated with TTFields for 72 hours were incubated with […] EGTA to disrupt cell-cell contacts. […] Relative protein densities of Akt on the Ser-473 ratio were determined. […]

A2780 cells [4] = assay: as above; assay type: cell-based; details: A2780, TTFields 200 kHz 72 h then 4 mM EGTA; compared with TTFields-treated cells under normal calcium levels
Experimental: as §1, with “GAPDH.” for “GAPDH. Lower panels: Densitometric analysis (arbitrary units normalized to the expression of the housekeeping protein GAPDH), is shown as mean±SEM. *p<0.05, and *** p<0.001; one-way ANOVA followed by Tukey's post hoc test: N≥2.”
as §2

angiogenesis = details: cited from earlier work
tumor microenvironment = details: systemic ADH-1; cited from earlier work

Compound: O=C(O)CN(CCOCCOCCN(CC(=O)O)CC(=O)O)CC(=O)O [EGTA, ethylene glycol-bis (β-aminoethyl ether)-N,N,N′,N′-tetraacetic acid]
- Cell morphology (H1299 cells [1]): rounded morphology
- Cell morphology (A2780 cells [2]): rounded morphology
- AKT phosphorylation (Ser473) (H1299 cells [3]): reduced phosphorylation of AKT
- AKT phosphorylation (Ser473) (A2780 cells [4]): reduced phosphorylation of AKT

Compound: N-Ac-CHAVC-NH2 (also: cyclic, type not given here) [ADH-1, cyclic peptide N-cadherin antagonist (CHAVC]
- Angiogenesis (angiogenesis): inhibit angiogenesis
- Tumor growth (tumor microenvironment): modulate tumor growth through activation of the AKT pathway
